Test results as given in US9738614B2, “Malignant and non-malignant disease treatment with Ras antagonists” (PISCES THERAPEUTICS, LLC, priority 2011, dated 2017).

What was measured:
Type in all cases: cell-based
JW16 cells = assay: IC50 assay with JW16 mouse MPNST cells; details: 0.5 to 20 μM, read-out: half-maximal effect on viability
Experimental: (§1) U87MG cells were seeded in a 24-well plate, 5000 cells per well, and incubated overnight at 37° C. in serum-free media. The next day they were treated in triplicate with 50 and 100 μM of each test compound (1), (2), (3), (4), and (5) and the reference compound FTS. After five days, the cells were trypsinized (0.5%), stained with trypan blue, and counted to determine the cell number per well. The half-maximal inhibitory concentration (IC50) values were calculated using Multiplex Reader-Fit software made by MiraiBio Group, Hitachi Solutions America, Ltd. In a typical experiment, the control wells averaged 138,000 cells. The results are presented graphically in FIG. 1. The test compounds at 50 μM allowed the following U87MG cell proliferation compared to control: compound (1)—37%, compound (2)—18%, compound (3)—10%, compound (4)—40%, and compound (5)—0%. The reference compound FTS at 50 μM allowed 7% cell proliferation compared to control.
(§2) Mouse models of NF-1 related MPNST have been made. Cells from two such mice, JW16 and JW19, have been isolated and propagated. The JW16 and JW19 cells were subjected to IC50 assays similar to Example 6 above.

EJ cells = assay: IC50 assay with EJ bladder cancer cells; details: Homo sapiens, 1.5 to 25 μM, read-out: half-maximal inhibition of viability
Experimental: as §1
EJ bladder cancer cells, which harbor a H-Ras mutation, were subjected to an IC50 assay similar to Example 6 above. EJ cells were grown in concentrations of compound (5) ranging from 1.5 to 25 μM.

LAM cells = assay: IC50 assay with lymphangioleiomyomatosis (LAM) cells; details: Homo sapiens, 0.1 to 50 μM, read-out: half-maximal inhibition of viability
Experimental: as §1
Human lymphangioleiomyomatosis (LAM) cells were subjected to an IC50 assay similar to Example 6 above.

GBM6 cells = assay: IC50 assay with GBM6 glioblastoma cells; details: Homo sapiens, 1 to 5 μM, read-out: half-maximal effect on cell viability
Experimental: as §1
An IC50 assay similar to Example 6 above was performed with GBM6 cells prepared from minced, freshly harvested tumor tissue. GBM6 cells were grown in the presence of compound (5) at concentrations ranging from 1 to 5 μM.

ECC1 cells = assay: IC50 assay with ECC1 endometrial cancer cells; details: Homo sapiens, ECC-1, 1 to 50 μM, read-out: half-maximal inhibition of viability
Experimental: as §1
ECC1 (well differentiated) and USPC1 (poorly differentiated) endometrial cancer cells were subjected to IC50 assays similar to Example 6 above. The cells were grown in concentrations of compound (5) ranging from 1 to 50 μM.

[1] = system: activated, GTP-bound form of Ras (Ras-GTP); assay: Ras-GTP Western blot in SCF-stimulated NF-1+/- mast cells; details: 10-15 μM, 3 minutes after SCF stimulation (FIG. 4A)
Experimental: (§3) Purified populations of NF-1+/−mast cells were stimulated with a maximum stimulating concentration of stem cell factor (SCF) in the presence of a control or compound (5) at concentrations of 10-15 μM. The activated, GTP-bound form of Ras (Ras-GTP) was measured 3 minutes subsequently using Western blot analysis. […] In parallel experiments, mast cell proliferation was measured using 3H-thymidine incorporation 24 hours after SCF stimulation in the presence of a control or compound (5) at concentrations of 0-12.5 μM. […] Each asterisk in FIG. 4B represents a statistical difference relative to the control using analysis of variance. (Yang, Feng-Chun, et. al. J Clin Invest 2003, 112(12), 1851-1861; Yang, Feng-Chun, et. al. Hum Mol Genet 2006, 15(11), 1921-1930).

[2] = system: hematopoietic progenitor cells (cord blood low density cells); assay: Human hematopoietic progenitor cell toxicity (colony assay); details: 12 days; 25 and 2.5 μM for compound (3), 2.5 and 0.25 μM for compound (5)
Experimental: Cord blood low density cells were plated at 1×10^5 cells per plate in 1 mL complete methylcellulose in the presence of each test compound (3) and (5) and incubated for 12 days in a CO2 incubator. Colony-forming unit-granulocyte (CFU-GM), burst-forming unit-erythroid (BFU-E), and mixed colonies were counted under an inverted microscope. […] The test compounds were not toxic to the hematopoietic progenitor cells.

NF-1+/- mast cells = assay: NF-1+/- mast cell proliferation (3H-thymidine incorporation); details: 0-12.5 μM, 24 hours after SCF stimulation (FIG. 4B)
Experimental: as §3

JW19 cells = assay: IC50 assay with JW19 mouse MPNST cells; details: 0.5 to 20 μM, read-out: half-maximal effect on viability
Experimental: as §1, §2

`CC(C)=CCC/C(C)=C/CC/C(C)=C/CSc1ccccc1C1=NCCN1` [compound (5), 2-(2-{[(2E,6E)-3,7,11-trimethyldodeca-2,6,10-trien-1-yl]sulfanyl}phenyl)-4,5-dihydro-1H-imidazole] showed an IC50 (JW16 cells) of 2.2 µM, an IC50 (EJ cells) of 2.5 µM and an IC50 (LAM cells) of 4 µM. For the same compound, the IC50 (GBM6 cells) was 3.5 µM, the IC50 (ECC1 cells) was 4 µM and the “level of Ras-GTP relative to the control” value [1] was “significantly reduced”. For the same compound, the “toxicity to hematopoietic progenitor cells (CFU-GM, BFU-E, mixed colonies)” value [2] was “not toxic”, the “mast cell proliferation relative to the control” value (NF-1+/- mast cells) was “reduced” and the IC50 (JW19 cells) was 4 µM.
